Earlier results, collected in patent US11464736B2, “Thermally gelling drug formulations” (UNM Rainforest Innovations, priority 2019, dated 2022).

Assays:
[1] = target: CYP3A4 metabolizing enzyme (Homo sapiens, UniProt P08684)
[2] = not given; remark: listed apart in the source

CYP3A4 metabolizing enzyme, sequence (P08684 whole entry): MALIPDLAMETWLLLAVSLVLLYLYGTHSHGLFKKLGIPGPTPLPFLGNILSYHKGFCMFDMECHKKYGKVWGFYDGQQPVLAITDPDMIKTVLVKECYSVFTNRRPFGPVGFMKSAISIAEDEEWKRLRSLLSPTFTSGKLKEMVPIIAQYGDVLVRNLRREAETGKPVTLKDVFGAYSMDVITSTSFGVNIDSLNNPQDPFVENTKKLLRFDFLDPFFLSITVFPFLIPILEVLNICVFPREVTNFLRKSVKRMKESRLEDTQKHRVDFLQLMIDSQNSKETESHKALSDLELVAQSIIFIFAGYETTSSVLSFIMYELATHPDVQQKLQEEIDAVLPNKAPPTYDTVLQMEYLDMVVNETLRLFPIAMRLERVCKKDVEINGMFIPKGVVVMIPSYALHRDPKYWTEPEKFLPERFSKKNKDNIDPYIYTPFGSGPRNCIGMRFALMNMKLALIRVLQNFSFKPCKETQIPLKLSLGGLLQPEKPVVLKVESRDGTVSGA

| inhibition of CYP3A4 [1] | increase of oral bioavailability when taken with food | log P [2] | Compound |
| --- | --- | --- | --- |
| competitive inhibitors | – | – | CC(=O)C(C)n1ncn(-c2ccc(N3CCN(c4ccc(OC[C@H]5CO[C@](Cn6cncn6)(c6ccc(Cl)cc6Cl)O5)cc4)CC3)cc2)c1=O (mixture of isomers) [keto-itraconazole] |
| – | 33-37% | 5.7-6.2 | CCC(C)n1ncn(-c2ccc(N3CCN(c4ccc(OCC5COC(Cn6cncn6)(c6ccc(Cl)cc6Cl)O5)cc4)CC3)cc2)c1=O (centres unmarked) [ITZ, Itraconazole] |
| competitive inhibitors | – | – | O=c1[nH]ncn1-c1ccc(N2CCN(c3ccc(OCC4COC(Cn5cncn5)(c5ccc(Cl)cc5Cl)O4)cc3)CC2)cc1 (centres unmarked) [N-desalkyl-itraconazole] |

| Compound | inhibition of CYP3A4 [1] | increase of oral bioavailability when taken with food | log P [2] |
| --- | --- | --- | --- |
| hydroxy-itraconazole | competitive inhibitors | – | – |
